From PMC6937582, “Human leukocyte antigen (HLA) class II peptide flanking residues tune the immunogenicity of a human tumor-derived epitope” (The Journal of Biological Chemistry, 2019)
No end group written: not given here.

These sequences were tested against T1, HLA-DR1 (Homo sapiens, UniProt P01903+P01911, A100R/D57E/F55L/F60I/F76Y/I96L/L162R/M171V/P40L/Q125E/R42F/V115G/Y59C) (assay: HLA-DR1 competitive peptide-binding assay). Settings: Fig. 2B; competition with 4.5 nM biotinylated CLIP99–117 marker peptide on refolded HLA-DR1-CLIP105–117, pH 5, overnight 37 °C, ELISA read-out; triplicate; four-parameter curve fit; read-out: HLA-DR1 binding IC50.
T1 construct: DRα*0101 (Uniprot: P01903, residues 26–207); HLA-DRβ1*0101 (Uniprot: P04229, residues 30–219); made in house
Work on AGDGRLRLARLALVLLGWVS [5T4_11–30] yielded an IC50 of 535 nM. FARRPPLAELAALNLSGSRL [5T4_111–130] showed an IC50 of 176 nM.

Same assay, conditions: Fig. 5 B,D,F,H,J; truncated/substituted 5T4_111–130 peptides; competition with biotinylated CLIP99–117, pH 5, overnight 37 °C; representative of two experiments in triplicate; read-out: HLA-DR1 binding (IC50)
FARRPPLAELAAANLSGSRL was tested, and the IC50 was 725 nM. Work on FARRPPLAELAALNLS yielded an IC50 of 360 nM. For FARRPPLAELAALNLSGS, the IC50 was 103 nM. FARRPPLAELAALNLSGSRL [5T4_111–130] gave an IC50 of 136 nM. FARRPPLAELAALNLSRSRL showed an IC50 of 255 nM. In the case of LAELAALNL, the IC50 is reported as 5140 nM. PPLAELAALNLSGSRL was tested, and the IC50 was 231 nM. For RRPPLAELAALNLSGSRL, the IC50 was 417 nM.

Same assay, conditions: HLA-DR1 binding (IC50)
Sequence FARRPPLAELAALALSGSRL has an IC50 of 144 nM.
